Measurements as given in patent publication EP3046573B1, “AMYLIN ANALOGUES” (Zealand Pharma A/S, priority 2013, dated 2015).
Like-named read-outs stand apart in the source and are kept apart here. Numbered stars: 1 amine (or outer) side, 2 acyl side, 3 side chain; on linkers, the order of the positions; unused ones are H or OH. Bridge positions count the residues as written; N and C are the ends. Square brackets hold non-standard residues; d marks the D form. Peptide text beside a SMILES is read from it. * marks the point of attachment. C20 diacid = O=C(O)CCCCCCCCCCCCCCCCCCC(=O)*; γGlu = O=C(O)[C@H](CCC(=O)[*:2])N[*:1]; NMeI = CC[C@H](C)[C@H](NC)C(=O)O; hArg = N=C(N)NCCCC[C@H](N)C(=O)O; Sar = CNCC(=O)O

Experiments:
[1] = Solubility assessment (turbidity absorbance at 325 nm); assay type: physicochemical; details: stock 2 mg/ml diluted 1:1, ambient temperature (typically 25°C), n=1; for Solubility, Acetate buffer pH 4: 100 mM acetate buffer pH 4.0; for Solubility, Acetate buffer pH 5: 100 mM acetate buffer pH 5.0; for Solubility, Histidine buffer pH 6: 100 mM histidine buffer pH 6.0; for Solubility, Histidine buffer pH 7: 100 mM histidine buffer pH 7.0; for Solubility, Phosphate buffer pH 6: 100 mM phosphate buffer pH 6.0; for Solubility, Phosphate buffer pH 7: 100 mM phosphate buffer pH 7.0; for Solubility, Phosphate buffer pH 7.5: 100 mM phosphate buffer pH7.5
Protocol: A stock solution of the test peptide (2 mg/ml; determined from the weighed amount of peptide) in demineralized water adjusted to pH 2.5 with HCI was prepared, and aliquots were diluted 1:1 in 100 mM acetate buffer (pH 4.0 and pH 5.0), 100 mM histidine buffer (pH 6.0 and pH 7.0) and 100 mM phosphate buffer (pH 6.0, pH 7.0 and pH7.5), respectively, and loaded in a standard flat-bottom, non-sterile 96-well UV Microplate. The absorbance of samples (single samples, n=1) at 280 and 325 nm was measured in an absorbance-based plate reader, which was preheated to ambient temperature (typically 25°C). The turbidity absorbance criterion for a peptide solubility of ≥ 1 mg/ml was an absorbance at 325 nm of ≤ 0.02 absorbance units (which is 5 to 6 times the standard deviation of 8 buffer samples in a plate). Solubility data for peptides of the invention, pramlintide, and for a comparison pramlintide derivative denoted NN96 (see Example 5 below for details) are shown in Table 1, below. Table 1. Solubility data for compounds of the invention.

[2] = biological target: T1, human calcitonin receptor (hCTR2) (Homo sapiens, UniProt P30988); experiment: hCTR2 assay: induction of cAMP (AlphaScreen cAMP Assay kit) in COS7 cells expressing hCTR2; assay type: cell-based
T1 construct: expressed in transfected cells
T1 sequence (P30988 25-474): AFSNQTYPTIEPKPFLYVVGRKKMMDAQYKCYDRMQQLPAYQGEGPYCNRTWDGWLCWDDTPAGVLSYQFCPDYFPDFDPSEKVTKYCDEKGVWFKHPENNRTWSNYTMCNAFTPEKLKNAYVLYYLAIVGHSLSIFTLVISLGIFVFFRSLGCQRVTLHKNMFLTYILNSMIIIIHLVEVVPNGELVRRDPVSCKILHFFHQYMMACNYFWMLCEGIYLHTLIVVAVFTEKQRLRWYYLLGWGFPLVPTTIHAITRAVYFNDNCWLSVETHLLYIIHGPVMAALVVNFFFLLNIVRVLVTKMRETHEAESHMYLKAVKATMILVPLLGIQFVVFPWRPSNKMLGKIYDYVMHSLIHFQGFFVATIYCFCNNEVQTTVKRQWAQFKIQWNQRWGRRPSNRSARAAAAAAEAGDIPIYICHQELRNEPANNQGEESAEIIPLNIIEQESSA
Procedure, shortened: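 cAMP read-out by AlphaScreen after cell lysis; EC50 and % efficacy vs pramlintide from 4-parameter logistic fitting. Agonist stimulation: hCTR2-COS7 stable cells, 15 min, 37° C, 100 µM IBMX, 0.1% casein, Tyrode/HEPES pH 7.4.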

Row | EC50 ([2]; cAMP induction in COS7 cells expressing hCTR2, average of a minimum of 3 determinations, read-out: hCTR2 EC50) [nM] | SMILES | Solubility, Acetate buffer pH 4 [1] | Solubility, Acetate buffer pH 5 [1] | Solubility, Histidine buffer pH 6 [1] | Solubility, Histidine buffer pH 7 [1] | Solubility, Phosphate buffer pH 6 [1] | Solubility, Phosphate buffer pH 7 [1] | Solubility, Phosphate buffer pH 7.5 [1] | EC50 [2] [nM]
1 | 1.3 | CC[C@H](C)[C@@H](C(=O)N[C@@H](CC(C)C)C(=O)N[C@@H](CO)C(=O)N[C@@H](CO)C(=O)N[C@H](C(=O)N[C@@H](CC(N)=O)C(=O)N[C@H](C(=O)NCC(=O)N[C@@H](CO)C(=O)N[C@@H](Cc1c[nH]cn1)C(=O)N[C@H](C(=O)N[C@@H](Cc1ccc(O)cc1)C(N)=O)[C@@H](C)O)C(C)C)[C@@H](C)O)N(C)C(=O)CN(C)C(=O)[C@H](Cc1ccccc1)NC(=O)[C@H](CC(N)=O)NC(=O)[C@H](CC(N)=O)NC(=O)[C@H](CO)NC(=O)[C@H](CO)NC(=O)[C@H](Cc1c[nH]cn1)NC(=O)[C@H](Cc1c[nH]cn1)NC(=O)[C@H](CC(C)C)NC(=O)[C@H](Cc1ccccc1)NC(=O)[C@H](CCC(=O)O)NC(=O)[C@H](C)NC(=O)[C@H](CC(C)C)NC(=O)[C@H](CCCNC(=N)N)NC(=O)[C@H](CCC(N)=O)NC(=O)[C@@H](NC(=O)[C@H](C)NC(=O)[C@@H]1CSSC[C@H](NC(=O)[C@H](CCCCN)NC(=O)CC[C@H](NC(=O)CCCCCCCCCCCCCCCCCCC(=O)O)C(=O)O)C(=O)N[C@@H](CC(N)=O)C(=O)N[C@@H]([C@@H](C)O)C(=O)N[C@@H](C)C(=O)N[C@@H]([C@@H](C)O)C(=O)N1)[C@@H](C)O [Compound 4, [19CD]-isoGlu-KC()NTATC()ATQRLAEFLHHSSNNF-Gly(Me)-Ile(Me)-LSSTNVGSHTY-NH2] ({C20 diacid-γGlu}-KCNTATCATQRLAEFLHHSSNNF[Sar][NMeI]LSSTNVGSHTY-NH2; disulfide 2-7) | II (II indicates solubility ≤ 1 mg/ml) | SS (SS indicates solubility ≥ 1mg/ml) | II (II indicates solubility ≤ 1 mg/ml) | II (II indicates solubility ≤ 1 mg/ml) | II (II indicates solubility ≤ 1 mg/ml) | II (II indicates solubility ≤ 1 mg/ml) | II (II indicates solubility ≤ 1 mg/ml) | 
2 |  | CC[C@H](C)[C@@H](C(=O)N[C@@H](CC(C)C)C(=O)N[C@@H](CO)C(=O)N[C@@H](CO)C(=O)N[C@H](C(=O)N[C@@H](CC(N)=O)C(=O)N[C@H](C(=O)NCC(=O)N[C@@H](CO)C(=O)N[C@@H](CC(N)=O)C(=O)N[C@H](C(=O)N1CCC[C@H]1C(N)=O)[C@@H](C)O)C(C)C)[C@@H](C)O)N(C)C(=O)[C@H](C)NC(=O)CN(C)C(=O)[C@H](Cc1ccccc1)NC(=O)[C@H](CC(N)=O)NC(=O)[C@H](CC(N)=O)NC(=O)[C@H](CO)NC(=O)[C@H](CO)NC(=O)[C@H](Cc1c[nH]cn1)NC(=O)[C@H](Cc1c[nH]cn1)NC(=O)[C@H](CC(C)C)NC(=O)[C@H](Cc1ccccc1)NC(=O)[C@H](CCC(=O)O)NC(=O)[C@H](C)NC(=O)[C@H](CC(C)C)NC(=O)[C@H](CCCNC(=N)N)NC(=O)[C@H](CCC(N)=O)NC(=O)[C@@H](NC(=O)[C@H](C)NC(=O)[C@@H]1CSSC[C@H](NC(=O)[C@H](C)NC(=O)CC[C@H](NC(=O)CCCCCCCCCCCCCCCCCCC(=O)O)C(=O)O)C(=O)N[C@@H](CC(N)=O)C(=O)N[C@@H]([C@@H](C)O)C(=O)N[C@@H](C)C(=O)N[C@@H]([C@@H](C)O)C(=O)N1)[C@@H](C)O [Compound 5, [19CD]-isoGlu-AC()NTATC()ATQRLAEFLHHSSNNF-Gly(Me)-A-Ile(Me)-LSSTNVGSNTP-NH2] ({C20 diacid-γGlu}-ACNTATCATQRLAEFLHHSSNNF[Sar]A[NMeI]LSSTNVGSNTP-NH2; disulfide 2-7) | SS (SS indicates solubility ≥ 1mg/ml) | SS (SS indicates solubility ≥ 1mg/ml) | SS (SS indicates solubility ≥ 1mg/ml) | SS (SS indicates solubility ≥ 1mg/ml) | SS (SS indicates solubility ≥ 1mg/ml) | SS (SS indicates solubility ≥ 1mg/ml) | SS (SS indicates solubility ≥ 1mg/ml) | 0.75
3 |  | CC[C@H](C)[C@@H](C(=O)N[C@@H](CC(C)C)C(=O)N[C@@H](CO)C(=O)N[C@@H](CO)C(=O)N[C@H](C(=O)N[C@@H](CC(N)=O)C(=O)N[C@H](C(=O)NCC(=O)N[C@@H](CO)C(=O)N[C@@H](CC(N)=O)C(=O)N[C@H](C(=O)N1CCC[C@H]1C(N)=O)[C@@H](C)O)C(C)C)[C@@H](C)O)N(C)C(=O)[C@H](C)NC(=O)CN(C)C(=O)[C@H](Cc1ccccc1)NC(=O)[C@H](CC(N)=O)NC(=O)[C@H](CC(N)=O)NC(=O)[C@H](CO)NC(=O)[C@H](CO)NC(=O)[C@H](Cc1c[nH]cn1)NC(=O)[C@H](Cc1c[nH]cn1)NC(=O)[C@H](CC(C)C)NC(=O)[C@H](Cc1ccccc1)NC(=O)[C@H](CCC(=O)O)NC(=O)[C@H](C)NC(=O)[C@H](CC(C)C)NC(=O)[C@H](CCCNC(=N)N)NC(=O)[C@H](CCC(N)=O)NC(=O)[C@@H](NC(=O)[C@H](C)NC(=O)[C@@H]1CSSC[C@H](NC(=O)[C@H](CCCCN)NC(=O)CC[C@H](NC(=O)CCCCCCCCCCCCCCCCCCC(=O)O)C(=O)O)C(=O)N[C@@H](CC(N)=O)C(=O)N[C@@H]([C@@H](C)O)C(=O)N[C@@H](C)C(=O)N[C@@H]([C@@H](C)O)C(=O)N1)[C@@H](C)O [Compound 19, [19CD]-isoGlu-KC()NTATC()ATQRLAEFLHHSSNNF-Gly(Me)-A-Ile(Me)-LSSTNVGSNTP-NH2] ({C20 diacid-γGlu}-KCNTATCATQRLAEFLHHSSNNF[Sar]A[NMeI]LSSTNVGSNTP-NH2; disulfide 2-7) | SS (SS indicates solubility ≥ 1mg/ml) | SS (SS indicates solubility ≥ 1mg/ml) | SS (SS indicates solubility ≥ 1mg/ml) | SS (SS indicates solubility ≥ 1mg/ml) | SS (SS indicates solubility ≥ 1mg/ml) | SS (SS indicates solubility ≥ 1mg/ml) | SS (SS indicates solubility ≥ 1mg/ml) | 0.071
4 |  | CC[C@H](C)[C@@H](C(=O)N[C@@H](CC(C)C)C(=O)N[C@@H](CO)C(=O)N[C@@H](CO)C(=O)N[C@H](C(=O)N[C@@H](CC(N)=O)C(=O)N[C@H](C(=O)NCC(=O)N[C@@H](CO)C(=O)N[C@@H](CC(N)=O)C(=O)N[C@H](C(=O)N1CCC[C@H]1C(N)=O)[C@@H](C)O)C(C)C)[C@@H](C)O)N(C)C(=O)[C@H](C)NC(=O)CN(C)C(=O)[C@H](Cc1ccccc1)NC(=O)[C@H](CC(N)=O)NC(=O)[C@H](CC(N)=O)NC(=O)[C@H](CO)NC(=O)[C@H](CO)NC(=O)[C@H](Cc1c[nH]cn1)NC(=O)[C@H](Cc1c[nH]cn1)NC(=O)[C@H](CC(C)C)NC(=O)[C@H](Cc1ccccc1)NC(=O)[C@H](CCC(=O)O)NC(=O)[C@H](C)NC(=O)[C@H](CC(C)C)NC(=O)[C@H](CCCNC(=N)N)NC(=O)[C@H](CCC(N)=O)NC(=O)[C@@H](NC(=O)[C@H](C)NC(=O)[C@@H]1CSSC[C@H](NC(=O)[C@H](CCCCNC(=N)N)NC(=O)CC[C@H](NC(=O)CCCCCCCCCCCCCCCCCCC(=O)O)C(=O)O)C(=O)N[C@@H](CC(N)=O)C(=O)N[C@@H]([C@@H](C)O)C(=O)N[C@@H](C)C(=O)N[C@@H]([C@@H](C)O)C(=O)N1)[C@@H](C)O [Compound 43, [19CD]-isoGlu-HarC()NTATC()ATQRLAEFLHHSSNNF-Gly(Me)-A-Ile(Me)-LSSTNVGSNTP-NH2] ({C20 diacid-γGlu}-[hArg]CNTATCATQRLAEFLHHSSNNF[Sar]A[NMeI]LSSTNVGSNTP-NH2; disulfide 2-7) |  |  |  |  |  |  |  | 0.1
